Results: the OligoGym collection
“And” between values parts separate entries of the source, which are not always exact repeats. Equal entries are not always repeated. HELM strings list units from the 5' end as sugar, base in round brackets, then linkage (d deoxyribose, r ribose, m 2'-O-methyl, p phosphodiester). Strings are as the collection lists them, not checked against the first reports. ss, as = sense and antisense strand; [fl2r] = 2'-fluoro

Details: siRNA
Further: test system not given here.

In the case of “RNA1{r(G)p.m(U)p.r(A)p.r(C)p.r(U)p.r(C)p.m(U)p.r(G)p.r(A)p.m(U)p.r(G)p.r(A)p.r(G)p.r(G)p.r(A)p.r(A)p.r(G)p.r(A)p.r(G)p.r(T)p.r(T)}|RNA2{r(C)p.r(U)p.r(C)p.r(U)p.r(U)p.r(C)p.r(C)p.r(U)p.m(C)p.r(A)p.r(U)p.m(C)p.r(A)p.r(G)p.r(A)p.r(G)p.r(U)p.m(A)p.r(C)p.r(T)p.r(T)}$$$RNA1{StrandType:ss}|RNA2{StrandType:as}$”, the target mRNA knockdown is reported as 68%.

For “RNA1{r(G)p.m(U)p.r(A)p.r(C)p.r(U)p.r(C)p.r(U)p.r(G)p.r(A)p.r(U)p.r(G)p.r(A)p.r(G)p.r(G)p.r(A)p.r(A)p.r(G)p.r(A)p.r(G)p.r(T)p.r(T)}|RNA2{r(C)p.r(U)p.r(C)p.r(U)p.r(U)p.r(C)p.r(C)p.r(U)p.r(C)p.r(A)p.r(U)p.r(C)p.r(A)p.r(G)p.r(A)p.r(G)p.r(U)p.r(A)p.r(C)p.r(T)p.r(T)}$$$RNA1{StrandType:ss}|RNA2{StrandType:as}$”, the target mRNA knockdown was 69%.

In the case of “RNA1{r(G)p.m(U)p.r(A)p.r(U)p.r(C)p.r(C)p.r(G)p.r(A)p.r(A)p.m(G)p.m(A)p.r(C)p.r(G)p.r(A)p.r(A)p.r(G)p.r(C)p.m(U)p.r(A)p.r(T)p.r(T)}|RNA2{m(U)p.r(A)p.r(G)p.r(C)p.r(U)p.r(U)p.r(C)p.r(G)p.r(U)p.r(C)p.r(U)p.r(U)p.r(C)p.r(G)p.r(G)p.r(A)p.m(U)p.r(A)p.r(C)p.r(T)p.r(T)}$$$RNA1{StrandType:ss}|RNA2{StrandType:as}$”, the target mRNA knockdown is reported as 92%.

For “RNA1{r(G)p.r(A)p.m(C)p.r(A)p.r(A)p.r(G)p.r(G)p.r(G)p.r(A)p.r(A)p.r(G)p.r(G)p.r(U)p.m(U)p.r(A)p.r(G)p.r(C)p.r(C)p.r(U)p.r(T)p.r(T)}|RNA2{r(A)p.r(G)p.r(G)p.r(C)p.m(U)p.r(A)p.r(A)p.r(C)p.r(C)p.r(U)p.r(U)p.r(C)p.r(C)p.r(C)p.r(U)p.m(U)p.r(G)p.r(U)p.r(C)p.r(T)p.r(T)}$$$RNA1{StrandType:ss}|RNA2{StrandType:as}$”, the target mRNA knockdown was 68%.

Work on “RNA1{r(G)p.r(A)p.m(U)p.r(A)p.r(C)p.r(U)p.r(U)p.r(C)p.m(U)p.r(G)p.r(G)p.r(U)p.r(U)p.r(C)p.r(C)p.r(C)p.r(U)p.r(C)p.r(C)p.r(T)p.r(T)}|RNA2{r(G)p.r(G)p.r(A)p.r(G)p.r(G)p.r(G)p.r(A)p.r(A)p.r(C)p.m(C)p.r(A)p.r(G)p.r(A)p.r(A)p.r(G)p.m(U)p.r(A)p.r(U)p.r(C)p.r(T)p.r(T)}$$$RNA1{StrandType:ss}|RNA2{StrandType:as}$” yielded a target mRNA knockdown of 45%.

With “RNA1{r(G)p.r(A)p.m(U)p.r(A)p.r(C)p.r(U)p.r(U)p.r(C)p.r(U)p.r(G)p.r(G)p.r(U)p.r(U)p.r(C)p.r(C)p.r(C)p.r(U)p.r(C)p.r(C)p.r(T)p.r(T)}|RNA2{r(G)p.r(G)p.r(A)p.r(G)p.r(G)p.r(G)p.r(A)p.r(A)p.r(C)p.r(C)p.r(A)p.r(G)p.r(A)p.r(A)p.r(G)p.m(U)p.r(A)p.r(U)p.r(C)p.r(T)p.r(T)}$$$RNA1{StrandType:ss}|RNA2{StrandType:as}$” the target mRNA knockdown was 46%.

Substance “RNA1{r(G)p.r(A)p.m(U)p.r(A)p.r(G)p.r(G)p.r(A)p.r(A)p.r(G)p.r(G)p.r(G)p.m(G)p.r(C)p.r(U)p.r(U)p.m(C)p.r(A)p.r(G)p.r(C)p.r(T)p.r(T)}|RNA2{r(G)p.r(C)p.m(U)p.r(G)p.r(A)p.r(A)p.r(G)p.r(C)p.r(C)p.r(C)p.r(C)p.r(U)p.r(U)p.r(C)p.r(C)p.m(U)p.r(A)p.r(U)p.r(C)p.r(T)p.r(T)}$$$RNA1{StrandType:ss}|RNA2{StrandType:as}$” has a target mRNA knockdown of 42%.

With “RNA1{r(G)p.r(A)p.m(U)p.r(A)p.r(G)p.r(G)p.r(A)p.r(A)p.r(G)p.r(G)p.r(G)p.r(G)p.r(C)p.r(U)p.r(U)p.r(C)p.r(A)p.r(G)p.r(C)p.r(T)p.r(T)}|RNA2{r(G)p.r(C)p.r(U)p.r(G)p.r(A)p.r(A)p.r(G)p.r(C)p.r(C)p.r(C)p.r(C)p.r(U)p.r(U)p.r(C)p.r(C)p.m(U)p.m(A)p.r(U)p.r(C)p.r(T)p.r(T)}$$$RNA1{StrandType:ss}|RNA2{StrandType:as}$” the target mRNA knockdown was 41%.

In the case of “RNA1{r(G)p.r(A)p.r(A)p.m(U)p.r(A)p.r(A)p.r(C)p.r(C)p.m(U)p.r(G)p.r(A)p.r(A)p.r(C)p.r(G)p.r(U)p.m(C)p.r(A)p.r(C)p.r(C)p.r(T)p.r(T)}|RNA2{r(G)p.r(G)p.m(U)p.r(G)p.r(A)p.r(C)p.r(G)p.r(U)p.r(U)p.m(C)p.r(A)p.r(G)p.r(G)p.r(U)p.m(U)p.r(A)p.r(U)p.r(U)p.r(C)p.r(T)p.r(T)}$$$RNA1{StrandType:ss}|RNA2{StrandType:as}$”, the target mRNA knockdown is reported as 51% and 69%.

For “RNA1{r(G)p.r(A)p.r(A)p.m(U)p.r(A)p.r(A)p.r(C)p.r(C)p.r(U)p.r(G)p.r(A)p.r(A)p.r(C)p.r(G)p.r(U)p.m(C)p.r(A)p.r(C)p.r(C)p.r(T)p.r(T)}|RNA2{r(G)p.r(G)p.r(U)p.r(G)p.r(A)p.r(C)p.r(G)p.r(U)p.r(U)p.m(C)p.r(A)p.r(G)p.r(G)p.r(U)p.r(U)p.r(A)p.r(U)p.r(U)p.r(C)p.r(T)p.r(T)}$$$RNA1{StrandType:ss}|RNA2{StrandType:as}$”, the target mRNA knockdown was 71%.

In the case of “RNA1{r(G)p.r(A)p.r(A)p.m(U)p.r(A)p.r(A)p.r(C)p.r(C)p.r(U)p.r(G)p.r(A)p.r(A)p.r(C)p.r(G)p.r(U)p.r(C)p.r(A)p.r(C)p.r(C)p.r(T)p.r(T)}|RNA2{r(G)p.r(G)p.r(U)p.r(G)p.r(A)p.r(C)p.r(G)p.r(U)p.r(U)p.r(C)p.r(A)p.r(G)p.r(G)p.r(U)p.m(U)p.r(A)p.r(U)p.r(U)p.r(C)p.r(T)p.r(T)}$$$RNA1{StrandType:ss}|RNA2{StrandType:as}$”, the target mRNA knockdown is reported as 55%.

“RNA1{r(G)p.r(A)p.r(A)p.r(A)p.r(A)p.r(C)p.r(G)p.r(C)p.r(U)p.m(U)p.r(G)p.m(U)p.r(A)p.r(A)p.r(A)p.r(G)p.r(C)p.r(C)p.r(G)p.r(T)p.r(T)}|RNA2{r(C)p.r(G)p.r(G)p.r(C)p.r(U)p.r(U)p.m(U)p.r(A)p.m(C)p.r(A)p.r(A)p.r(G)p.r(C)p.r(G)p.r(U)p.r(U)p.r(U)p.r(U)p.r(C)p.r(T)p.r(T)}$$$RNA1{StrandType:ss}|RNA2{StrandType:as}$” gave a target mRNA knockdown of 54%.

For “RNA1{r(G)p.r(A)p.r(A)p.r(A)p.r(A)p.r(C)p.r(G)p.r(C)p.r(U)p.r(U)p.r(G)p.r(U)p.r(A)p.r(A)p.r(A)p.r(G)p.r(C)p.r(C)p.r(G)p.r(T)p.r(T)}|RNA2{r(C)p.r(G)p.r(G)p.r(C)p.r(U)p.r(U)p.m(U)p.r(A)p.r(C)p.r(A)p.r(A)p.r(G)p.r(C)p.r(G)p.r(U)p.r(U)p.r(U)p.r(U)p.r(C)p.r(T)p.r(T)}$$$RNA1{StrandType:ss}|RNA2{StrandType:as}$”, the target mRNA knockdown was 56%.

In the case of “RNA1{r(G)p.r(A)p.r(A)p.r(A)p.r(C)p.m(U)p.m(G)p.r(G)p.m(U)p.r(A)p.r(C)p.m(U)p.r(U)p.r(U)p.r(C)p.r(C)p.r(C)p.r(C)p.r(C)p.r(T)p.r(T)}|RNA2{r(G)p.r(G)p.r(G)p.r(G)p.r(G)p.r(A)p.r(A)p.r(A)p.r(G)p.m(U)p.r(A)p.r(C)p.m(C)p.m(A)p.r(G)p.r(U)p.r(U)p.r(U)p.r(C)p.r(T)p.r(T)}$$$RNA1{StrandType:ss}|RNA2{StrandType:as}$”, the target mRNA knockdown is reported as 85%.

“RNA1{r(G)p.r(A)p.r(A)p.r(A)p.r(C)p.m(U)p.m(G)p.r(G)p.m(U)p.r(A)p.r(C)p.r(U)p.r(U)p.r(U)p.r(C)p.r(C)p.r(C)p.r(C)p.r(C)p.r(T)p.r(T)}|RNA2{r(G)p.r(G)p.r(G)p.r(G)p.r(G)p.r(A)p.r(A)p.r(A)p.r(G)p.m(U)p.r(A)p.r(C)p.r(C)p.r(A)p.r(G)p.r(U)p.r(U)p.r(U)p.r(C)p.r(T)p.r(T)}$$$RNA1{StrandType:ss}|RNA2{StrandType:as}$” showed a target mRNA knockdown of 88%.

With “RNA1{r(G)p.r(A)p.r(A)p.r(A)p.r(C)p.r(U)p.r(G)p.r(G)p.[fl2r](U)p.r(A)p.r(C)p.r(U)p.r(U)p.r(U)p.r(C)p.r(C)p.r(C)p.r(C)p.r(C)p.r(T)p.r(T)}|RNA2{r(G)p.r(G)p.r(G)p.r(G)p.r(G)p.r(A)p.r(A)p.r(A)p.r(G)p.[fl2r](U)p.r(A)p.r(C)p.r(C)p.r(A)p.r(G)p.r(U)p.r(U)p.r(U)p.r(C)p.r(T)p.r(T)}$$$RNA1{StrandType:ss}|RNA2{StrandType:as}$” the target mRNA knockdown was 58%.

Work on “RNA1{r(G)p.r(A)p.r(A)p.r(A)p.r(C)p.r(U)p.r(G)p.r(G)p.r(U)p.r(A)p.r(C)p.r(U)p.r(U)p.r(U)p.r(C)p.r(C)p.r(C)p.r(C)p.r(C)p.r(T)p.r(T)}|RNA2{r(G)p.r(G)p.r(G)p.r(G)p.r(G)p.r(A)p.r(A)p.r(A)p.r(G)p.[fl2r](U)p.r(A)p.r(C)p.r(C)p.r(A)p.r(G)p.[fl2r](U)p.[fl2r](U)p.[fl2r](U)p.r(C)p.r(T)p.r(T)}$$$RNA1{StrandType:ss}|RNA2{StrandType:as}$” yielded a target mRNA knockdown of 26%.

With “RNA1{r(G)p.r(A)p.r(A)p.r(C)p.r(U)p.r(C)p.r(U)p.r(U)p.r(A)p.r(G)p.r(C)p.r(G)p.r(U)p.r(A)p.r(U)p.r(G)p.r(C)p.r(A)p.r(A)p.d(T)p.d(T)}|RNA2{r(U)p.r(U)p.r(G)p.r(C)p.r(A)p.r(U)p.r(A)p.r(C)p.r(G)p.r(C)p.r(U)p.r(A)p.r(A)p.r(G)p.r(A)p.r(G)p.r(U)p.r(U)p.r(C)p.d(T)p.d(T)}$$$RNA1{StrandType:ss}|RNA2{StrandType:as}$” the target mRNA knockdown was 56%.

In the case of “RNA1{r(G)p.r(A)p.r(A)p.r(G)p.r(A)p.[fl2r](U)p.r(A)p.r(G)p.r(G)p.r(A)p.r(A)p.r(G)p.r(G)p.r(G)p.r(G)p.[fl2r](C)p.[fl2r](U)p.[fl2r](U)p.[fl2r](C)p.r(T)p.r(T)}|RNA2{r(G)p.r(A)p.r(A)p.r(G)p.r(C)p.r(C)p.r(C)p.r(C)p.r(U)p.r(U)p.r(C)p.r(C)p.r(U)p.r(A)p.r(U)p.r(C)p.r(U)p.r(U)p.r(C)p.r(T)p.r(T)}$$$RNA1{StrandType:ss}|RNA2{StrandType:as}$”, the target mRNA knockdown is reported as 45%.

“RNA1{r(G)p.r(A)p.r(A)p.r(G)p.r(A)p.[fl2r](U)p.r(A)p.r(G)p.r(G)p.r(A)p.r(A)p.r(G)p.r(G)p.r(G)p.r(G)p.r(C)p.r(U)p.r(U)p.r(C)p.r(T)p.r(T)}|RNA2{r(G)p.r(A)p.r(A)p.r(G)p.r(C)p.r(C)p.r(C)p.r(C)p.r(U)p.r(U)p.r(C)p.r(C)p.[fl2r](U)p.r(A)p.r(U)p.r(C)p.r(U)p.r(U)p.r(C)p.r(T)p.r(T)}$$$RNA1{StrandType:ss}|RNA2{StrandType:as}$” gave a target mRNA knockdown of 56%.

Work on “RNA1{r(G)p.r(A)p.r(A)p.r(G)p.r(A)p.r(G)p.r(C)p.r(C)p.m(U)p.m(A)p.m(C)p.r(A)p.m(C)p.r(A)p.r(A)p.r(C)p.r(C)p.r(C)p.r(U)p.r(T)p.r(T)}|RNA2{r(A)p.r(G)p.r(G)p.r(G)p.r(U)p.m(U)p.r(G)p.m(U)p.r(G)p.m(U)p.r(A)p.r(G)p.r(G)p.r(C)p.r(U)p.r(C)p.r(U)p.r(U)p.r(C)p.r(T)p.r(T)}$$$RNA1{StrandType:ss}|RNA2{StrandType:as}$” yielded a target mRNA knockdown of 74%.
